Test results from ChEMBL document CHEMBL1201862, “PubChem BioAssay data set” (2004).
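Five compound concentrations were applied to cells in 96-well plates for 48 hours; endpoints were derived by simple linear interpolation of the resulting dose-response curve. Here, GI50 denotes the concentration required for 50% inhibition of growth.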 Active and inactive are the calls of the source. Cut-off read from the data, not from the text of the source: active = GI50 up to about 1.1 µM and inactive = higher.

Legend:
Assay in all cases: DTP human tumour cell line panel, 48 h
786-0 = tested on: 786-0
A498 = tested on: A498
ACHN = tested on: ACHN
DU-145 = tested on: DU-145
IGROV-1 = tested on: IGROV-1
K562 = tested on: K562
KM12 = tested on: KM12
M14 = tested on: M14
MCF7 = tested on: MCF7
Malme-3M = tested on: Malme-3M
NCI-H226 = tested on: NCI-H226
NCI-H522 = tested on: NCI-H522
OVCAR-3 = tested on: OVCAR-3
OVCAR-4 = tested on: OVCAR-4
RPMI-8226 = tested on: RPMI-8226
SNB-19 = tested on: SNB-19
SW-620 = tested on: SW-620
T47D = tested on: T47D
U-251 = tested on: U-251
UACC-62 = tested on: UACC-62

Structure (SMILES) | GI50 (786-0) | GI50 (A498) | GI50 (ACHN) | GI50 (DU-145) | GI50 (IGROV-1) | GI50 (K562) | GI50 (KM12) | GI50 (M14) | GI50 (MCF7) | GI50 (Malme-3M) | GI50 (NCI-H226) | GI50 (NCI-H522) | GI50 (OVCAR-3) | GI50 (OVCAR-4) | GI50 (RPMI-8226) | GI50 (SNB-19) | GI50 (SW-620) | GI50 (T47D) | GI50 (U-251) | GI50 (UACC-62)
CCC(C)OC(=O)/C(Br)=C1/OC(=O)c2ccccc2-c2ccccc21 (stereo not given) | 48.6 µM (inactive) | 40.7 µM (inactive) | 40.1 µM (inactive) | > 100 µM (inactive) | > 10 µM (inactive) | 4.42 µM (inactive) | 23.8 µM (inactive) | 32.1 µM (inactive) | 41 µM (inactive) | 29.7 µM (inactive) | 55.2 µM (inactive) | 18.7 µM (inactive) | 27.4 µM (inactive) | 62.5 µM (inactive) | 22.3 µM (inactive) | 49.5 µM (inactive) | 18.1 µM (inactive) | 58.2 µM (inactive) | > 10 µM (inactive) | 19.4 µM (inactive)
O=C1C(Br)=C(Br)C(=O)c2c(O)ccc(O)c21 | 1.56 µM (inactive) | 21.7 µM (inactive) | 2.48 µM (inactive) | 12.1 µM (inactive) | 14.7 µM (inactive) | 0.596 µM (active) | 11.4 µM (inactive) | 1.85 µM (inactive) | 2.42 µM (inactive) | 1.45 µM (inactive) | 28.4 µM (inactive) | 0.287 µM (active) | 5.85 µM (inactive) | 3.6 µM (inactive) | 0.721 µM (active) | 18.3 µM (inactive) | 1.33 µM (inactive) | 2.19 µM (inactive) | 16.4 µM (inactive) | 11.2 µM (inactive)
O=C(O)CN1CCNCCN(CC(=O)O)CCNCC1 | > 42.2 µM (inactive) | 50 µM (inactive) | > 100 µM (inactive) | > 100 µM (inactive) | 24.3 µM (inactive) | 3.85 µM (inactive) | 5.75 µM (inactive) | > 100 µM (inactive) | 28.2 µM (inactive) | 56.9 µM (inactive) | > 64.7 µM (inactive) | 14.7 µM (inactive) | > 100 µM (inactive) | > 100 µM (inactive) | 6.31 µM (inactive) | > 100 µM (inactive) | 4.2 µM (inactive) | > 48.2 µM (inactive) | 9.06 µM (inactive) | 38.8 µM (inactive)
CN(C)C=C1C(=O)c2c(Br)sc(Br)c2C1=O | 33.9 µM (inactive) | 21.3 µM (inactive) | 29.6 µM (inactive) | 28.5 µM (inactive) | 18.7 µM (inactive) | 22.1 µM (inactive) | 30.1 µM (inactive) | 18.7 µM (inactive) | 33.7 µM (inactive) | 14.3 µM (inactive) | 16.3 µM (inactive) | 15.9 µM (inactive) | 19.1 µM (inactive) | 13.8 µM (inactive) | 29.8 µM (inactive) | 28.7 µM (inactive) | 28.3 µM (inactive) | 29.9 µM (inactive) | 19.1 µM (inactive) | 17.1 µM (inactive)
NC(C(=O)O)C(O)c1c[nH]cn1 (stereo not given) | > 100 µM (inactive) | > 100 µM (inactive) | > 100 µM (inactive) | > 100 µM (inactive) | > 100 µM (inactive) | > 100 µM (inactive) | > 100 µM (inactive) | > 100 µM (inactive) | > 100 µM (inactive) | > 100 µM (inactive) | > 100 µM (inactive) | > 100 µM (inactive) | > 100 µM (inactive) | > 100 µM (inactive) | > 100 µM (inactive) | > 100 µM (inactive) | > 100 µM (inactive) | > 100 µM (inactive) | > 100 µM (inactive) | > 100 µM (inactive)
C[C@H](CCC1=NCCN1)[C@H]1CC[C@H]2[C@@H]3CC[C@@H]4C[C@H](O)CC[C@]4(C)[C@H]3CC[C@]12C | 2.37 µM (inactive) | 14.9 µM (inactive) | 7.91 µM (inactive) | 13.9 µM (inactive) | 8.28 µM (inactive) | 2.49 µM (inactive) | 7.59 µM (inactive) | 2.49 µM (inactive) | 6.52 µM (inactive) | 2.44 µM (inactive) | 7.46 µM (inactive) | 5.41 µM (inactive) | 0.394 µM (active) | 12.9 µM (inactive) | 3.13 µM (inactive) | 13.9 µM (inactive) | 6.84 µM (inactive) | 13.1 µM (inactive) | 6.05 µM (inactive) | 2.07 µM (inactive)
CC(C)(CN1CCCCC1)C(/C=C/c1ccc(Cl)c(Cl)c1)=N\NC(=O)N/N=C(/C=C/c1ccc(Cl)c(Cl)c1)C(C)(C)CN1CCCCC1 | 1.48 µM (inactive) | 1.72 µM (inactive) | 1.89 µM (inactive) | 1.85 µM (inactive) | 1.77 µM (inactive) | 0.325 µM (active) | 1.63 µM (inactive) | 0.385 µM (active) | 1.54 µM (inactive) | 1.55 µM (inactive) | 2.3 µM (inactive) | 1.82 µM (inactive) | 1.56 µM (inactive) | 1.71 µM (inactive) | 1.42 µM (inactive) | 1.69 µM (inactive) | 1.62 µM (inactive) | 2.05 µM (inactive) | 1.69 µM (inactive) | 1.95 µM (inactive)
